Earlier results on one substance are cited in article PMC3277211 (Journal of the American Chemical Society, 2011).

In one data set the test system is S. pneumoniae R800. Conditions: included for comparison.
In another data set the test system is S. aureus P29S PAS8001. To be noted: S. aureus NCTC 8325 SpsB(P29S) PAS8001; included for comparison.
In the next data set the test system is S. epidermidis RP62A. Conditions: included for comparison.
A further data set relates to S. pyogenes MGAS-1. To be noted: included for comparison.
The test system of another data set is P. aeruginosa PAO1. Conditions: P. aeruginosa PAO1 wild type; included for comparison.
The next data set relates to R. opacus DSM 1069. To be noted: included for comparison.
For another data set, the system named is E. coli P84L PAS0260. To be noted: E. coli MG1655 LepB(P84L) PAS0260; included for comparison.
The test system of a further data set is S. aureus NCTC 8325. Conditions: S. aureus NCTC 8325 wild type; included for comparison.
Data set [1] concerns P. aeruginosa P84L PAS2008. Conditions: P. aeruginosa PAO1 LepB(P84L) PAS2008; included for comparison.
The subject of a further data set is S. agalactiae COH-1. Conditions: included for comparison.
A further data set relates to C. glutamicum DSM 44475. Conditions: included for comparison.

For the substance Arylomycin A-C16, the MIC with S. pneumoniae R800 is 8 µg/mL; in the data set with S. aureus P29S PAS8001 it was 2 µg/mL; in the data set on S. epidermidis RP62A, 0.25 µg/mL; with S. pyogenes MGAS-1, 8 µg/mL; in the data set on P. aeruginosa PAO1, greater than 128 µg/mL; with R. opacus DSM 1069, 2 µg/mL. Also, the minimum inhibitory concentration (MIC) was 2 µg/mL in the data set on E. coli P84L PAS0260; greater than 128 µg/mL in the data set on S. aureus NCTC 8325; 8 µg/mL in [1]; greater than 128 µg/mL in the data set with S. agalactiae COH-1; 4 µg/mL in the data set with C. glutamicum DSM 44475.
